Data taken from article PMC6271077, “Synthesis, Anticancer and Antibacterial Activity of Salinomycin N-Benzyl Amides” (Molecules, 2014).
In brackets after ≈: the same amount, converted by molar mass. Read-outs that look alike come from different tables or passages of the source.

Experiments:
HL-60/vinc = assay: Antiproliferative MTT assay, HL-60/vinc; assay type: cell-based, human; conditions: for IC50: Homo sapiens, HL60/vinc, 72 h, read-out: IC50 HL-60/vinc; for IR HL-60/vinc: IR = IC50 HL-60/vinc / IC50 HL-60; for SI HL-60/vinc: SI = IC50 BALB/3T3 / IC50 HL-60/vinc
From the text: (§1) Four human cancer cell lines and one normal cell line were used to evaluate anticancer activity of SAL and its N-benzyl amides: human acute promyelocytic leukemia (HL-60) and its vincristine resistant subline (HL-60/vinc), human colon adenocarcinoma cell lines sensitive (LoVo) and resistant to doxorubicin (LoVo/dx) as well as also normal murine embryonic fibroblast cell line (BALB/3T3). The BALB/3T3 cell line was purchased from the American Type Culture Collection (ATCC Rockville, MD, USA), HL-60 cell line from European Type Culture Collection by courtesy of Professor Spik and Dr Mazurier (Laboratory of Biological Chemistry USTL, Lille, France) and HL-60/vinc, LoVo and LoVo/dx by courtesy of Prof. E. Borowski (Technical University of Gdańsk, Gdańsk, Poland). All the cell lines are maintained in the Institute of Immunology and Experimental Therapy (IIET), Wrocław, Poland.
(§2) Human leukemia cells were cultured in ISCOVE medium (IIET, Wroclaw, Polond) containing 10% fetal bovine serum and 2 mM L-glutamine (Sigma Aldrich) and 1 µg/100 mL […] for HL-60/vinc (Sigma Aldrich). Human colon adenocarcinoma cell lines were cultured in mixture of OptiMEM and RPMI 1640 (1:1) medium (IIET) supplemented with 5% fetal bovine serum (Thermo Fisher Scientific, Waltham, MA, USA), 2 mM L-glutamine, 1 mM sodium pyruvate (Sigma Aldrich) and 10 µg/100 mL doxorubicin for LoVo/dx (Sigma Aldrich). Murine embryonic fibroblast cells were cultured in Dulbecco medium (Gibco, Darmstadt, Germany) supplemented with 10% fetal bovine serum (Thermo Fisher Scientific) and 2 mM L-glutamine (Sigma Aldrich). All culture media contained antibiotics: 100 U/mL penicillin (Sigma Aldrich) and 100 µg/mL streptomycin (Polfa-Tarchomin, City, Poland). All cell lines were cultured during entire experiment in humid atmosphere at 37 °C and 5% CO2.
(§3) Twenty four hours before adding the tested compounds all cell lines were seeded in 96-well plates (Sarstedt, Nümbrecht, Germany) in appropriate media with 10^4 cells per well. All cell lines were exposed to each tested agent at four different concentrations from the range 100 to 0.1 µg/mL for 72 h. The cells were also exposed to the reference drugs: cisplatin (Accord, London, UK) and doxorubicin hydrochloride (Fluka, St. Louis, MO, USA). Additionally, all cell lines were exposed to DMSO (the solvent used for tested compounds, Sigma Aldrich) at the concentrations corresponding to those in the tested agent dilutions. For adherent cells sulphorodamine B assay was performed and MTT assay for leukemia cells.
(§4) Proliferation inhibition of leukemia cells by tested compounds was measured by means of MTT assay. Thus, 20 µL of 3-(4,5-dimethylthiazol-2-yl)-2,5-diphenyl tetrazolium bromide solution (Sigma Aldrich) were added to each well and plates were left in cell incubator for 4 h to allow the cells to metabolize yellow MTT to blue formazan. Then, the lysing mixture consisting of 225 mL dimethylformamide, 67.5 g sodium dodecyl sulfate (both from Sigma Aldrich) and 275 mL of distilled water was added in 80 µL volume per well. Plates were incubated for 24 h for the formazan crystals to be released from cells, dissolved and then absorbance of each well was read at Synergy H4 photometer (BioTek Instruments) at 570 nm wavelength.
(§5) Results are presented as mean IC50 (concentration of the tested compound that inhibits cell proliferation by 50%) ± standard deviation. IC50 values were calculated in Cheburator 1.0.2, Dmitry Nevozhay software for each experiment. Compounds at each concentration were tested in triplicates in single experiment and each experiment was repeated at least three times independently. The IR was defined as the ratio of IC50 for a given compound calculated for resistant cell line to that measured for its parental drug sensitive cell line (Table 4).

HL-60 = assay: Antiproliferative MTT assay, HL-60; assay type: cell-based, human; conditions: for IC50: Homo sapiens, read-out: IC50 HL-60; for SI HL-60: SI = IC50 BALB/3T3 / IC50 HL-60
From the text: as §1, §2, §3, §4, §5

[1] = system: M. tuberculosis isoniazid-sensitive strain (spec. 192); assay: Tuberculostatic activity, test-tube dilution; assay type: cell-based; conditions: Mycobacterium tuberculosis, read-out: MIC M. tuberculosis Isoniazid-Sensitive Strain
LoVo = assay: Antiproliferative SRB assay, LoVo; assay type: cell-based, human; conditions: for IC50: Homo sapiens, LoVo, 72 h, read-out: IC50 LoVo; for SI LoVo: SI = IC50 BALB/3T3 / IC50 LoVo
From the text: as §1, §2, §3
(§6) After 72 h of incubation with tested compounds the cells were fixed in situ by gently adding of 50 µL per well of cold 50% trichloroacetic acid TCA (Avantor Performance Materials, City, Poland) and were incubated at 4 °C for 1 h. Then the wells were washed four times with water and air-dried. Next, 50 µL of 0.2% solution of sulphorodamine B (Sigma Aldrich) in 1% acetic acid (Avantor Performance Materials) were added to each well and plates were incubated at room temperature for 0.5 h. After incubation time, unbound dye was removed by washing plates four times with 1% acetic acid, whereas the stain bound to cells was solubilized with 150 µL of 10 mM Tris base (Sigma Aldrich). Absorbance of each solution was read at Synergy H4 photometer (BioTek Instruments, Winooski, VT, USA) at 540 nm wavelength.
as §5

LoVo/dx = assay: Antiproliferative SRB assay, LoVo/dx; assay type: cell-based, human; conditions: for IC50: Homo sapiens, LoVo/DX, 72 h, read-out: IC50 LoVo/dx; for IR LoVo/DX: IR = IC50 LoVo/dx / IC50 LoVo; for SI LoVo/DX: SI = IC50 BALB/3T3 / IC50 LoVo/dx
From the text: as §1, §2, §3, §6, §5

[2] = system: M. tuberculosis standard H37Rv strain; assay: Tuberculostatic activity, test-tube dilution; assay type: cell-based; conditions: Mycobacterium tuberculosis, read-out: MIC M. tuberculosis Standard H37Rv Strain
[3] = system: HL-60, HL-60/vinc, LoVo, LoVo/dx; assay: Antiproliferative assays, all four cancer cell lines (range given); assay type: cell-based; conditions: Homo sapiens, read-out: IC50 (range over the cancer cell lines)
From the text: as §1, §2, §3, §6
Proliferation inhibition of leukemia cells by tested compounds was measured by means of MTT assay. […]

[4] = system: standard and "wild" strains of M. tuberculosis; assay: Tuberculostatic activity, all M. tuberculosis strains (overall); assay type: cell-based; conditions: Mycobacterium tuberculosis, H37RV, read-out: MIC (over M. tuberculosis strains)
[5] = HL-60, 72 h, MTT, mean ± SD, NA: not active in concentrations used (up to 100 µg/mL)

| SMILES | IC50 (HL-60/vinc) [µM] | IR HL-60/vinc (HL-60/vinc) | SI HL-60/vinc (HL-60/vinc) | IC50 (HL-60; [5]) [µM] | SI HL-60 (HL-60) | MIC [1] [mg/L] | IC50 (LoVo; SRB, mean ± SD) [µM] | SI LoVo (LoVo) | IC50 (LoVo/dx) [µM] | IR LoVo/DX (LoVo/dx) | SI LoVo/DX (LoVo/dx) | MIC [2] [mg/L] | IC50 (HL-60; HL-60, 72 h) [µM] | IC50 (LoVo) [µM] | IC50 [3] [µM] | IC50 ([3]; range over HL-60, HL-60/vinc, LoVo, LoVo/dx) [µM] | MIC ([1]; wild strain spec. 192, Youmans' medium, 37 °C, tested 3.1-100 µg/mL) [mg/L] | MIC ([2]; Youmans' medium, 37 °C, tested 3.1-100 µg/mL) [mg/L] | MIC [4] [mg/L] |
| --- | --- | --- | --- | --- | --- | --- | --- | --- | --- | --- | --- | --- | --- | --- | --- | --- | --- | --- | --- |
| CC[C@H](C(=O)NCc1cccc([N+](=O)[O-])c1)C1CC[C@H](C)C([C@@H](C)[C@H](O)[C@H](C)C(=O)[C@H](CC)C2O[C@]3(C=C[C@@H](O)C4(CC[C@@](C)(C5CC[C@](O)(CC)[C@H](C)O5)O4)O3)[C@H](C)C[C@@H]2C)O1 (stereo partly shown) [NO2-m] | 24.6 ± 8 | 2.80 | 1.01 | 8.78 ± 1.73 | 2.84 | 100 (≈ 113 µM) | 16.1 ± 1.61 | 1.54 | 3.26 ± 0.84 | 0.20 | 7.64 | 100 (≈ 113 µM) | – | – | – | – | – | – | – |
| CCC(C(=O)NCc1ccccc1[N+](=O)[O-])C1CCC(C)C(C(C)C(O)C(C)C(=O)C(CC)C2OC3(C=CC(O)C4(CCC(C)(C5CCC(O)(CC)C(C)O5)O4)O3)C(C)CC2C)O1 (stereo not shown) [NO2-o] | 6.84 ± 2.04 | 1.97 | 1.40 | – | 2.75 | 50 (≈ 56.5 µM) | – | 2.51 | 2.45 ± 0.26 | 0.64 | 3.90 | 50 (≈ 56.5 µM) | 3.47 ± 0.44 | 3.81 ± 0.18 | 2.32 to 6.84 | – | – | – | – |
| CCC(C(=O)NCc1ccccc1F)C1CCC(C)C(C(C)C(O)C(C)C(=O)C(CC)C2OC3(C=CC(O)C4(CCC(C)(C5CCC(O)(CC)C(C)O5)O4)O3)C(C)CC2C)O1 (stereo not shown) [F-o] | 4.44 ± 1.73 | 1.22 | 1.34 | – | 1.64 | 50 (≈ 58.3 µM) | – | 1.71 | 2.32 ± 0.69 | 0.66 | 2.57 | 100 (≈ 117 µM) | 3.63 ± 0.14 | 3.49 ± 0.59 | 2.32 to 6.84 | – | – | – | – |
| CC[C@H](C(=O)NCc1ccccc1Cl)C1CC[C@H](C)C([C@@H](C)[C@H](O)[C@H](C)C(=O)[C@H](CC)C2O[C@]3(C=C[C@@H](O)C4(CC[C@@](C)(C5CC[C@](O)(CC)[C@H](C)O5)O4)O3)[C@H](C)C[C@@H]2C)O1 (stereo partly shown) [Cl-o] | 3.99 ± 1.47 | 1.25 | 1.50 | 3.18 ± 0.69 | 1.89 | 50 (≈ 57.2 µM) | 3.85 ± 0.05 | 1.56 | 2.91 ± 0.22 | 0.76 | 2.06 | 100 (≈ 114 µM) | – | – | – | 2.32 to 6.84 | – | – | – |
| NNC(=O)c1ccncc1 [Isoniazid, isoniazid, reference compound] | – | – | – | – | – | – | – | – | – | – | – | – | – | – | – | – | < 3.1 | < 3.1 | 3.1 to 6.25 (≈ 22.6 to 45.6 µM) |
| CC[C@H](C(=O)NCc1cccc(Br)c1)C1CC[C@H](C)C([C@@H](C)[C@H](O)[C@H](C)C(=O)[C@H](CC)C2O[C@]3(C=C[C@@H](O)C4(CC[C@@](C)(C5CC[C@](O)(CC)[C@H](C)O5)O4)O3)[C@H](C)C[C@@H]2C)O1 (stereo partly shown) [Br-m] | 7.08 ± 1.73 | 2.09 | 1.31 | 3.38 ± 1.09 | 2.74 | > 100 | 5.23 ± 0.22 | 1.77 | 3.39 ± 0.15 | 0.65 | 2.73 | > 100 | – | – | – | – | – | – | > 100 |
| CCC(C(=O)NCc1cccc(F)c1)C1CCC(C)C(C(C)C(O)C(C)C(=O)C(CC)C2OC3(C=CC(O)C4(CCC(C)(C5CCC(O)(CC)C(C)O5)O4)O3)C(C)CC2C)O1 (stereo not shown) [F-m] | – | – | – | – | 0.10 | > 100 | – | 0.48 | 3.91 ± 2.1 | 0.29 | 1.65 | 100 (≈ 117 µM) | 65 ± 35.3 | 13.5 ± 0.28 | – | – | – | – | – |
| CC[C@H](C(=O)NCc1cccc(Cl)c1)C1CC[C@H](C)C([C@@H](C)[C@H](O)[C@H](C)C(=O)[C@H](CC)C2O[C@]3(C=C[C@@H](O)C4(CC[C@@](C)(C5CC[C@](O)(CC)[C@H](C)O5)O4)O3)[C@H](C)C[C@@H]2C)O1 (stereo partly shown) [Cl-m] | 6.59 ± 1.22 | 1.72 | 2.63 | 3.83 ± 0.09 | 4.52 | > 100 | 11.6 ± 5.12 | 1.49 | 2.96 ± 0.99 | 0.25 | 5.86 | 100 (≈ 114 µM) | – | – | – | – | – | – | – |
| CC[C@H](C(=O)NCc1ccc(Br)cc1)C1CC[C@H](C)C([C@@H](C)[C@H](O)[C@H](C)C(=O)[C@H](CC)C2O[C@]3(C=C[C@@H](O)C4(CC[C@@](C)(C5CC[C@](O)(CC)[C@H](C)O5)O4)O3)[C@H](C)C[C@@H]2C)O1 (stereo partly shown) [Br-p] | 33.5 ± 10.9 | 1.62 | 0.25 | 20.7 ± 4.66 | 0.41 | 50 (≈ 54.4 µM) | 16.3 ± 0.96 | 0.52 | 4.97 ± 2.76 | 0.30 | 1.69 | 50 (≈ 54.4 µM) | – | – | – | – | – | – | – |
| CC[C@H](C(=O)NCc1ccc(Cl)cc1)C1CC[C@H](C)C([C@@H](C)[C@H](O)[C@H](C)C(=O)[C@H](CC)C2O[C@]3(C=C[C@@H](O)C4(CC[C@@](C)(C5CC[C@](O)(CC)[C@H](C)O5)O4)O3)[C@H](C)C[C@@H]2C)O1 (stereo partly shown) [Cl-p, p-chlorobenzyl amide of salinomycin] | 46.8 ± 12.5 | 1.29 | 0.16 | 36.2 ± 3.03 | 0.21 | 100 (≈ 114 µM) | 19.3 ± 4.03 | 0.40 | 16.6 ± 4.81 | 0.86 | 0.46 | 100 (≈ 114 µM) | – | – | – | – | – | – | – |
